± gives the expanded uncertainty stated by the source.
Assays:
[1] = Molar enthalpy of transition or fusion; details: Crystal; DSC
[2] = Crystal; DTA

Molar enthalpy of transition or fusion [1]	Normal melting temperature [2]	SMILES
9.15 ± 1.84 kcal/mol	-0.92 ± 2 °C	CCCCCCCCCCCC(=O)OCC [ethyl dodecanoate]
12.7 ± 4.78 kcal/mol	24.78 ± 2 °C	CCCCCCCCCCCCCCCC(=O)OCC [ethyl hexadecanoate]
10.8 ± 2.17 kcal/mol	13.63 ± 2 °C	CCCCCCCCCCCCC1CCCCC1 [dodecylcyclohexane]
